# Activity calls are given as the source filed them. No cut-off for these calls is given here.
# Assays:
# Enterococcus faecalis = assay: Antibacterial activity against Enterococcus faecalis assessed as inhibition of bacterial growth measured after 24 hrs incubation; type: functional
# Cell membrane [1] = assay: Induction of cell membrane damage in methicillin-resistant Staphylococcus aureus N315 assessed as increase in density of red fluorescence at 4 times of MIC by Calcein-AM/PI dual staining based fluorescence microscopy; type: cell membranes
# Cell membrane [2] = assay: Induction of cell membrane damage in Escherichia coli assessed as increase in density of red fluorescence at 4 times of MIC by Calcein-AM/PI dual staining based fluorescence microscopy; type: cell membranes
# [3] = Hemolytic activity in human red blood cells assessed as hemolysis rate at 512 ug/ml relative to control; type: toxicity, cell-based, Erythrocyte; conditions: red blood cells (erythrocytes), at 512 µg/mL, read-out: Activity
# Escherichia coli [4] = assay: Antibacterial activity against Escherichia coli assessed as resistance development measured after 18 generations; type: functional, organism-based
# Staphylococcus aureus [5] = assay: Antibacterial activity against Staphylococcus aureus ATCC 29213 assessed as inhibition of bacterial growth measured after 24 hrs incubation; type: functional
# Calf thymus DNA [6] = assay: Binding affinity to calf thymus DNA assessed as DNA intercalation with drug by […] assay; type: nucleic-acid assay; conditions: Bos taurus
# Escherichia coli [7] = assay: Anti-biofilm effect in Escherichia coli assessed as inhibition of biofilm formation by measuring reduction in exo-polysaccharide content at 6 times of MIC relative to control; type: functional
# Escherichia coli [8] = assay: Antibacterial activity against Escherichia coli assessed as resistance development by measuring compound concentration required to inhibit measured after 18 generations; type: functional
# Staphylococcus aureus [9] = assay: Induction of lipid peroxidation in methicillin-resistant Staphylococcus aureus N315 assessed as malondialdehyde (MDA) level production; type: functional, organism-based
# Escherichia coli [10] = assay: Antibacterial activity against Escherichia coli ATCC 25922 assessed as inhibition of bacterial growth measured after 24 hrs incubation; type: functional
# Staphylococcus aureus [11] = assay: Antibacterial activity against Staphylococcus aureus assessed as inhibition of bacterial growth measured after 24 hrs incubation; type: functional
# Pseudomonas aeruginosa [12] = assay: Antibacterial activity against Pseudomonas aeruginosa ATCC 27853 assessed as inhibition of bacterial growth measured after 24 hrs incubation; type: functional
# Calf thymus DNA [13] = assay: Binding affinity to calf thymus DNA by acridine orange staining based competitive binding assay; type: nucleic-acid assay; conditions: Bos taurus
# Staphylococcus aureus [14] = assay: Antibacterial activity against methicillin-resistant Staphylococcus aureus N315 assessed as resistance development by measuring compound concentration required to inhibit measured after 18 generations; type: functional
# Staphylococcus aureus [15] = assay: Induction of ROS production in methicillin-resistant Staphylococcus aureus N315 assessed as fluorescence intensity at 2 times of MIC by DCFH-DA (dichlorofluorescin diacetate) probe based assay
# Staphylococcus aureus [16] = assay: Reduction in metabolic activity in methicillin-resistant Staphylococcus aureus N315 by Alamar Blue assay; type: functional, organism-based
# Escherichia coli [17] = assay: Antibacterial activity against Escherichia coli assessed as resistance development measured after 11 generations; type: functional, organism-based
# Staphylococcus aureus [18] = assay: Antibacterial activity against methicillin-resistant Staphylococcus aureus N315 assessed as reduction in bacterial burden at 2 to 4 times of MIC measured upto 7 hrs by time-dependent kinetics assay; type: functional, organism-based
# Escherichia coli [19] = assay: Induction of lipid peroxidation in Escherichia coli assessed as malondialdehyde (MDA) level production; type: functional, organism-based
# Staphylococcus aureus [20] = assay: Induction of lipid peroxidation in methicillin-resistant Staphylococcus aureus N315 assessed as malondialdehyde (MDA) level production at 4 time of MIC; type: functional, organism-based
# Staphylococcus aureus [21] = assay: Antibacterial activity against methicillin-resistant Staphylococcus aureus N315 assessed as resistance development measured after 10 generations; type: functional, organism-based
# Escherichia coli [22] = assay: Anti-biofilm effect in Escherichia coli assessed as biofilm destruction by measuring eradication rate at MIC; type: functional
# Staphylococcus aureus [23] = assay: Anti-biofilm effect in methicillin-resistant Staphylococcus aureus N315 assessed as biofilm destruction rate at 6 times of MIC; type: functional
# Staphylococcus aureus [24] = assay: Reduction in metabolic activity in methicillin-resistant Staphylococcus aureus N315 at 6 times of MIC by Alamar Blue assay relative to control; type: functional; parameters: scale not given: the % may be the effect or the level left
# Staphylococcus aureus [25] = assay: Antibacterial activity against methicillin-resistant Staphylococcus aureus N315 assessed as inhibition of bacterial growth measured after 24 hrs incubation; type: functional
# [26] = Hemolytic activity in human red blood cells assessed as hemolysis rate at 64 ug/ml relative to control; type: toxicity, cell-based, Erythrocyte; conditions: red blood cells (erythrocytes), at 64 µg/mL, read-out: Activity
# Calf thymus DNA [27] = assay: Binding affinity to calf thymus DNA assessed as hypochromism by spectroscopic analysis; type: nucleic-acid assay; conditions: Bos taurus
# Escherichia coli [28] = assay: Reduction in metabolic activity in Escherichia coli at 6 times of MIC by Alamar Blue assay relative to control; type: functional; parameters: scale not given: the % may be the effect or the level left
# Escherichia coli [29] = assay: Anti-biofilm effect in Escherichia coli assessed as biofilm destruction rate at 6 times of MIC; type: functional
# Staphylococcus aureus [30] = assay: Antibacterial activity against methicillin-resistant Staphylococcus aureus N315 assessed as reduction in bacterial burden at 2 to 4 times of MIC measured within 5 hrs by time-dependent kinetics assay; type: functional, organism-based
# Staphylococcus aureus [31] = assay: Anti-biofilm effect in methicillin-resistant Staphylococcus aureus N315 assessed as biofilm destruction by measuring eradication rate at MIC; type: functional
# Staphylococcus aureus [32] = assay: Antibacterial activity against Staphylococcus aureus ATCC 25923 assessed as inhibition of bacterial growth measured after 24 hrs incubation; type: functional
# Escherichia coli [33] = assay: Reduction in metabolic activity in Escherichia coli by Alamar Blue assay; type: functional, organism-based
# Escherichia coli [34] = assay: Induction of ROS production in Escherichia coli assessed as fluorescence intensity by DCFH-DA (dichlorofluorescin diacetate) probe based assay; type: functional, organism-based
# Cell membrane [35] = assay: Induction of cytoplasmic membrane integrity loss in methicillin-resistant Staphylococcus aureus N315 assessed as increase in fluorescence intensity at MIC by Propidium iodide method (reference value: 554); type: cell membranes
# Pseudomonas aeruginosa [36] = assay: Antibacterial activity against Pseudomonas aeruginosa assessed as inhibition of bacterial growth measured after 24 hrs incubation; type: functional
# Escherichia coli [37] = assay: Antibacterial activity against Escherichia coli assessed as reduction in bacterial burden at 2 to 4 times of MIC measured within 5 hrs by time-dependent kinetics assay; type: functional, organism-based
# Staphylococcus aureus [38] = assay: Antibacterial activity against methicillin-resistant Staphylococcus aureus N315 assessed as resistance development measured after 18 generations; type: functional, organism-based
# Staphylococcus aureus [39] = assay: Anti-biofilm effect in methicillin-resistant Staphylococcus aureus N315 assessed as inhibition of biofilm formation by measuring reduction in exo-polysaccharide content at 6 times of MIC relative to control; type: functional
# Acinetobacter baumannii = assay: Antibacterial activity against Acinetobacter baumannii assessed as inhibition of bacterial growth measured after 24 hrs incubation; type: functional
# Escherichia coli [40] = assay: Antibacterial activity against Escherichia coli assessed as reduction in bacterial burden at 2 to 4 times of MIC measured upto 7 hrs by time-dependent kinetics assay; type: functional, organism-based
# Escherichia coli [41] = assay: Induction of ROS production in Escherichia coli assessed as fluorescence intensity at 2 times of MIC by DCFH-DA (dichlorofluorescin diacetate) probe based assay; type: functional
# Escherichia coli [42] = assay: Antibacterial activity against Escherichia coli assessed as inhibition of bacterial growth measured after 24 hrs incubation; type: functional
# Klebsiella pneumoniae = assay: Antibacterial activity against Klebsiella pneumonia assessed as inhibition of bacterial growth measured after 24 hrs incubation; type: functional
# Escherichia coli [43] = assay: Induction of lipid peroxidation in Escherichia coli assessed as malondialdehyde (MDA) level production at 4 time of MIC; type: functional, organism-based
structure (smiles),measurement,setting,value
CCn1cc(C(=O)O)c(=O)c2cc(F)c(N3CCN(C(=O)/C(C#N)=C/c4cn(CCO)c5ccccc45)CC3)cc21,MIC,Enterococcus faecalis,0.25 µg/mL
same,Activity,Cell membrane [1],Active
same,Activity,Cell membrane [2],Active
same,hemolysis at 512 ug/ml,[3],< 1.8%
same,Activity,Escherichia coli [4],Active
same,MIC,Staphylococcus aureus [5],0.25 µg/mL
same,Activity,Calf thymus DNA [6],Active
same,inhibition (INH),Escherichia coli [7],<50%
same,MIC,Escherichia coli [8],32 µg/mL
same,Activity,Staphylococcus aureus [9],Dose-Dependent Effect
same,MIC,Escherichia coli [10],0.5 µg/mL
same,MIC,Staphylococcus aureus [11],0.25 µg/mL
same,MIC,Pseudomonas aeruginosa [12],0.5 µg/mL
same,Activity,Calf thymus DNA [13],Active
same,MIC,Staphylococcus aureus [14],64 µg/mL
same,Activity,Staphylococcus aureus [15],>50%
same,Activity,Staphylococcus aureus [16],Dose-Dependent Effect
same,Activity,Escherichia coli [17],inactive
same,Activity,Staphylococcus aureus [18],Active
same,Activity,Escherichia coli [19],Dose-Dependent Effect
same,Activity,Staphylococcus aureus [20],Active
same,Activity,Staphylococcus aureus [21],inactive
same,inhibition (INH),Escherichia coli [22],40.3%
same,inhibition (INH),Staphylococcus aureus [23],>60%
same,Activity,Staphylococcus aureus [24],>50%
same,MIC,Staphylococcus aureus [25],0.25 µg/mL
same,hemolysis at 64 ug/ml,[26],< 1.8%
same,Activity,Calf thymus DNA [27],Active
same,Activity,Escherichia coli [28],>50%
same,inhibition (INH),Escherichia coli [29],>60%
same,Activity,Staphylococcus aureus [30],Active
same,inhibition (INH),Staphylococcus aureus [31],22.1%
same,MIC,Staphylococcus aureus [32],0.25 µg/mL
same,Activity,Escherichia coli [33],Dose-Dependent Effect
same,Activity,Escherichia coli [34],Dose-Dependent Effect
same,Flu intensity,Cell membrane [35],1250
same,MIC,Pseudomonas aeruginosa [36],1 µg/mL
same,Activity,Escherichia coli [37],Active
same,Activity,Staphylococcus aureus [38],Active
same,inhibition (INH),Staphylococcus aureus [39],<50%
same,MIC,Acinetobacter baumannii,0.5 µg/mL
same,Activity,Escherichia coli [40],Active
same,Activity,Escherichia coli [41],>50%
same,MIC,Escherichia coli [42],0.25 µg/mL
same,MIC,Klebsiella pneumoniae,0.25 µg/mL
same,Activity,Escherichia coli [43],Active
